The record followed here is patent publication US12472166B2, “Inhibition of mycobacterial type VII secretion” (priority 2019, dated 2025).

Test [1] deals with resistant M. tuberculosis strains. The format is cell-based.
The test system of test [2] is M. tuberculosis overexpressing ethA. The format is cell-based.

Consider `COc1ccc(-c2nsc(SCC(=O)NC3CCCC3)n2)cc1` [Compound I-12], for which, in test [1], the “concentration in presence of which resistant strains were grown” value stood at 80 µM and the “increase compared to the susceptible WT strain” value amounted to 64 fold. In test [2], the “increased susceptibility as compared to the parent WT strain” value is reported as “at least 4 fold”. Turning to `O=C(CSc1nc(-c2ccccc2)no1)NC1CCCC1` [Compound I-31], the “activity in the ethA overexpression strain compared to WT M. tuberculosis” value in test [2] is “did not show an increased activity”. For the molecule `O=C(CSc1nc(-c2ccccc2)no1)NC1CCCC1` [Compound I-28], the “activity in the ethA overexpression strain compared to WT M. tuberculosis” value in test [2] was “increased activity in the ethA overexpression strain”.
